Data on four compounds can be found in patent publication US5942537A, “Method of inhibiting the transport of L-glutamate to treat CNS disorders” (The Regents of the University of California, priority 1993, dated 1999).

The test system of one test is NMDA receptors. The test can be described thus: 3H-L-glutamate binding to NMDA receptors in synaptic plasma membranes. The following applies: for ^3 H-L-GLU binding to NMDA receptors, % of Control: % of control binding ± s.d., corrected for nonspecific binding; for inhibition of ^3 H-L-glutamate binding to the NMDA receptor (in words): as reported in Table 1. On the set-up: species or system rat. Here is the method: (§1) The Synaptosomes were prepared by the procedure of (a) Booth, R. F. G.; Clark, J. B., Biochem J. 176, 365 (1978) and assayed for synaptosomal uptake as described by (b) Kuhar, M. M.; Zarbin, M. J., Neurochem 31, 251 (1978), both which are incorporated by reference herein. The binding specificities of the four PDC isomers were determined by testing both their ability to inhibit the high affinity transport of ^3 H-L-glutamate into synaptosomes and to block the binding of radioligands to each of the three receptor sites in a synaptic plasma membrane preparation (SPM) (Synaptic plasma membranes were prepared and NMDA receptor binding quantified as described by Monaghan, D. T.; Cotman, C. W., Proc. Nat. Acad. Sci. U.S.A. 83, 7532 (1986) incorporated by reference herein). When included in the ^3 H-L-glutamate uptake assay, as represented in FIG. 3, at only a 2-fold excess relative to L-glutamate (10 μM of ^3 H-L-glutamate vs. 20 μM of 7), the L-trans-2,4-PDC isomer reduced the rate of synaptosomal transport from control levels of 1.13 nmol min^-1 mg-protein^-1 to 0.16 nmol min^-1 mg-protein^-1. […] This selective inhibition by L-trans-2,4-PDCclearly delineates a preferred configurational and/or conformational relationship for binding to the glutamate uptake protein.
(§2) To further characterize the pharmacological specificity of the PDC conformers and identify other potential sites at which the transport inhibitor could bind, the compounds were tested for their ability to inhibit the binding of ^3 H-L-glutamate to NMDA receptors, ^3 H-KA binding to KA receptors, and ^3 H-AMPA (α-amino-3-hydroxy-5-methylisoxazole-4-propionic acid) binding to QA receptors. Binding to kainate receptors was quantified by the procedures of (a) Simon, J. R.; Contrera, J. F.; Kuhar, M. J., J. Neurochem 26, 141 (1976), and (b) London, E. D.; Coyle, J. T.; Molec. Pharm. 15, 492 (1979) which are incorporated by reference herein. Binding to quisqualate receptors (QA) were quantified as described by (c) Honore, T.; Lauridsen, J.; Krogsgaard-Larsen, P. J., Neurochem 1982, 38, 173, which are incorporated by reference herein. […] This lack of interaction with any of the excitatory receptors is in direct contrast with its potent inhibition of transport and identifies L-trans-2,4-PDC as a specific probe of the L-glutamate transport system.
(§3) Synaptic plasma membrane (SPMS) were prepared as previously described (Monaghan, D. T.; Cotman, C. W., Proc. Nat. Acad. Sci. U.S.A. 83:7532 (1986) incorporated by reference herein.) Briefly, male Sprague-Dawley rats (200 g) were decapitated, their forebrains were rapidly removed, and the brain tissue homogenized in 0.32M sucrose. Following differential centrifugation, a membrane fraction enriched in synapses, but low in myelin and mitochondria, was obtained. This membrane fraction was washed three times with […] Tris-acetate buffer, pH 7.2, and diluted into the appropriate assay buffer to about 200 μg protein/ml.
Binding to NMDA, KA, and QA receptors were quantified with ^3 H-L-glutamate, ^3 H-KA, and ^3 H-AMPA respectively. The binding assays were carried out using optimally selective conditions of time, temperature, and buffer for each of the three receptor classes. ^3 H-L-Glutamate binding was quantified under conditions that selectively label NMDA receptors. The SPMs were incubated with ^3 H-L-glutamate (10 nM, 50.9 Ci/mmol) in 50 mM Tris-acetate, pH 7.0, at 4° C. for 30 minutes. Non-specific binding was determined by the inclusion of 500 μM L-glutamate. KA receptors were quantified as previously described. ^3 H-KA (10 nM, 60 Ci/mmol) binding was determined in 50 mM Tris-citrate buffer, pH 7.0, at 4° C. for 30 min. Non-specific binding was determined by the inclusion of 100 μM unlabeled KA. QA receptors were measured with ^3 H-AMPA binding as described by Honore et al. J. Neurochem. 38:173-178 (1982). […]

A further test has as its system QA receptors. The test can be described thus: 3H-AMPA binding to QA receptors in synaptic plasma membranes. More on the design: species or system rat. The settings on record: for ^3 H-AMPA binding to QA receptors, % of Control: diacid 100 μM, % of control binding ± s.d., corrected for nonspecific binding. Here is the method: as §2, §3
(§4) Binding to NMDA, KA, and QA receptors were quantified with ^3 H-L-glutamate, ^3 H-KA, and ^3 H-AMPA respectively. The binding assays were carried out using optimally selective conditions of time, temperature, and buffer for each of the three receptor classes. ^3 H-L-Glutamate binding was quantified under conditions that selectively label NMDA receptors. The SPMs were incubated with ^3 H-L-glutamate (10 nM, 50.9 Ci/mmol) in 50 mM Tris-acetate, pH 7.0, at 4° C. for 30 minutes. Non-specific binding was determined by the inclusion of 500 μM L-glutamate. KA receptors were quantified as previously described. ^3 H-KA (10 nM, 60 Ci/mmol) binding was determined in 50 mM Tris-citrate buffer, pH 7.0, at 4° C. for 30 min. Non-specific binding was determined by the inclusion of 100 μM unlabeled KA. QA receptors were measured with ^3 H-AMPA binding as described by Honore et al. J. Neurochem. 38:173-178 (1982). Essentially, 3 H-AMPA (10 nM, 27.6 Ci/mmol) binding is quantified in 50 mM Tris-acetate buffer, pH 7.2, containing 100 mM KSCN for 30 minutes at 4° C. Non-specific binding was determined by the inclusion of 100 μM quisqualic acid. In the inhibition studies, the conformationally defined analogues were included in the assay mixture at the appropriate concentrations (0.1-200 μM). The assays (total volume, 1.08 mL) were initiated by the addition of radiolabel and terminated by centrifugation (Beckman Microfuge, top speed, 3 min). Unbound radioligand in the supernatant was removed by suction and the radioactivity in the pellet quantified by liquid scintillation counting. All of the binding studies were carried out as 2 sets of triplicates within a single experiment and each experiment was repeated at least 3 times.

In the next test the test system is KA receptors. The test can be described thus: 3H-KA binding to KA receptors in synaptic plasma membranes. On the set-up: species or system rat. The settings on record: for ^3 H-KA binding to KA receptors, % of Control: diacid 100 μM, % of control binding ± s.d., corrected for nonspecific binding. Here is the method:
as §2, §3, §4

Test [1] deals with T1, high affinity transport of 3H-L-glutamate into synaptosomes (Rattus norvegicus, UniProt P31596).
T1 construct: Synaptosomes were prepared by the procedure of Booth et al; from tissue; host or cells: brain synaptosomes (Ficoll/sucrose gradient)
T1 sequence (P31596 whole entry): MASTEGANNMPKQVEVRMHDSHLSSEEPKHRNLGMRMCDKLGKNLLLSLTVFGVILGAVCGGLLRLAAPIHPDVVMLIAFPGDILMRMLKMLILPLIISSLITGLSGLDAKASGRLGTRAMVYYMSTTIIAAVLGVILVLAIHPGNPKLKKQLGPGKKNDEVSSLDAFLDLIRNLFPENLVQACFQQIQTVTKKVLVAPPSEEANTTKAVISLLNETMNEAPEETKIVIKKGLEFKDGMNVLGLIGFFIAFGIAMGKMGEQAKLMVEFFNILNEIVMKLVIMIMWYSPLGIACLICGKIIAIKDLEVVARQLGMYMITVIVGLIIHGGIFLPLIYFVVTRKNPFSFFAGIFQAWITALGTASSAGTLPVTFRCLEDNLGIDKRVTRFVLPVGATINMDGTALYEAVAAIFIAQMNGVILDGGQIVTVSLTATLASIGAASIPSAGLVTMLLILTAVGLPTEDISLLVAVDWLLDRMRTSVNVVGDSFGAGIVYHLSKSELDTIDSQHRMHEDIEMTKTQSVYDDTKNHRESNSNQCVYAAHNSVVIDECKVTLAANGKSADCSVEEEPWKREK
The test can be described thus: Synaptosomal uptake of 3H-L-glutamate. It is filed as biochemical. The following applies: 10 μM 3H-L-glutamate; for inhibition of glutamate transport (in words): isomers at similar concentrations (20 μM). How it is done: Synaptosomal uptake of ^3 H-L-glutamate (10 μM) was followed at 37° C. in the presence and absence of 20 μM PDC isomers. The curves shown are from representative experiments (n=2-4 rate determinations) and are reported as mean ±SD. Transport rates were determined by linear regression analysis and have been corrected for background and non-specific uptake. The effect of the PDC isomers and is reported as % of control transport rate ±SD (n=8-16 rate determinations).
as §1
Synaptosomes were prepared by the procedure of Booth et al., (Biochem J. 176:365 (1978) incorporated by reference herein), using Ficoll/sucrose gradient centrifugation. Uptake of ^3 H-L-glutamate was followed essentially as described by Kuhar and Zarbin (J. Neurochem 31:[…] (1978) incorporated by reference herein.) Synaptosomes were suspended in a physiological buffer (Krebs-Ringer phosphate buffer) and preincubated at 37° C. for 5 min. The uptake assay was initiated by the addition of ^3 H-L-glutamate (0.1-100 μM). Aliquots were removed at appropriate times (0.5-10 min) and were rapidly filtered on GF/F glass fiber filters. The filters were rapidly washed with 20 volumes of ice cold buffer. Radioactivity present on the filters was determined by liquid scintillation counting. Uptake rates were corrected for both background (i.e., uptake at 0 min) and leakage (i.e., uptake at 0° C.).

SMILES strings stand for the structures. Where only a bound is given, the exact number is not on record here.

Regarding `O=C(O)[C@@H]1CN[C@H](C(=O)O)C1` [Diacid 4, cis-4-Carboxy-L-proline], the “^3 H-L-GLU binding to NMDA receptors, % of Control” value (“^3 H-L-GLU binding … % of Control” for short) in the test with NMDA receptors (diacid 100 μM) is 89 ± 13 % of Control. The “^3 H-AMPA binding to QA receptors, % of Control” value (from here on “^3 H-AMPA binding … % of Control”) with QA receptors is on record as 102 ± 12 % of Control. Moreover, the “^3 H-KA binding to KA receptors, % of Control” value (shortened to “^3 H-KA binding … % of Control”) with KA receptors was 100 ± 12 % of Control. Moreover, in test [1], the “inhibition of glutamate transport (in words)” value is “substantially less effective”.
As to `O=C(O)[C@H]1CN[C@H](C(=O)O)C1` [Diacid 7, trans-4-Carboxy-L-proline], the “inhibition of ^3 H-L-glutamate binding to the NMDA receptor (in words)” value in the test on NMDA receptors was “did not significantly inhibit”. In addition, in the test with NMDA receptors (diacid 100 μM), the “^3 H-L-GLU binding … % of Control” value is listed as 87 ± 10 % of Control. For the same compound, the “inhibition of radioligand binding to QA receptors (in words)” value in the test with QA receptors (compound in 10^4 -fold excess) was “did not significantly inhibit”. In addition, the “^3 H-AMPA binding … % of Control” value in the test with QA receptors is recorded as 109 ± 13 % of Control. In the test on KA receptors (compound in 10^4 -fold excess), the “inhibition of radioligand binding to KA receptors (in words)” value was “did not significantly inhibit”. For the same compound, in the test with KA receptors, the “^3 H-KA binding … % of Control” value is 102 ± 10 % of Control. Further, the “rate of synaptosomal transport” value in test [1] (20 μM compound, 37° C., control level 1.13) is 0.16 nmol min^-1 mg-protein^-1. Besides, the inhibition at 20 µM in test [1] (20 μM compound, read-out: reduction in the rate of uptake) was greater than 80%. Further, the “inhibition of glutamate transport (in words)” value in test [1] is reported as “potent inhibitor”.
Regarding `O=C(O)[C@@H]1CN[C@@H](C(=O)O)C1` [Diacid 11, trans-4-Carboxy-D-proline], in the test on NMDA receptors, the “inhibition of ^3 H-L-glutamate binding to the NMDA receptor (in words)” value was “weakly inhibiting”. In addition, in the test on NMDA receptors (diacid 100 μM), the “^3 H-L-GLU binding … % of Control” value is reported as 95 ± 12 % of Control. Further, in the test with QA receptors, the “^3 H-AMPA binding … % of Control” value is 108 ± 11 % of Control. Also, in the test with KA receptors, the “^3 H-KA binding … % of Control” value is given as 92 ± 6 % of Control. Further, the “inhibition of glutamate transport (in words)” value in test [1] was “substantially less effective”.
Take `O=C(O)[C@H]1CN[C@@H](C(=O)O)C1` [Diacid 14, cis-4-Carboxy-D-proline]: the “^3 H-L-GLU binding … % of Control” value in the test on NMDA receptors (diacid 20 μM) is reported as 76 ± 5 % of Control; in the test with NMDA receptors (diacid 100 μM), 38 ± 12 % of Control. Further, the “^3 H-AMPA binding … % of Control” value with QA receptors is recorded as 110 ± 9 % of Control. The “^3 H-KA binding … % of Control” value with KA receptors was 101 ± 6 % of Control. Further, in test [1], the “inhibition of glutamate transport (in words)” value is on record as “substantially less effective”.
